Measurements from PubChem BioAssay AID330 (DTP/NCI, 2004).
“And” between values parts separate entries of the source, which are not always exact repeats. Equal values may be shown once. Inconclusive results and toxic doses are left out.

Tested on: P388 leukemia ip, CD2F1 mice, survival T/C
Assay: NCI In Vivo Anticancer Drug Screen. Data for tumor model P388 Leukemia (intraperitoneal) in CD2F1 (CDF1) mice
Conditions: endpoint: median survival time, higher = longer survival
In short: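 Mice carrying the transplanted tumor received test compound or vehicle. Survival was recorded in each group, and the value is the treated-group measurement divided by that of the vehicle-treated control group.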

[1] = dose: 6.25 mg/kg/injection, schedule: Q01DX009 (ip), vehicle: saline with Tween-80
[2] = dose: 12.5 mg/kg/injection, schedule: Q01DX009 (ip), vehicle: saline with Tween-80
[3] = dose: 100.0 mg/kg/injection, schedule: Q01DX009 (ip), vehicle: Klucel (hydroxypropylcellulose) (HPC)
[4] = dose: 200.0 mg/kg/injection, schedule: Q01DX009 (ip), vehicle: Klucel (hydroxypropylcellulose) (HPC)
[5] = dose: 60.0 mg/kg/injection, schedule: Q01DX005 (ip), vehicle: saline with Tween-80
[6] = dose: 120.0 mg/kg/injection, schedule: Q01DX005 (ip), vehicle: saline with Tween-80
[7] = dose: 240.0 mg/kg/injection, schedule: Q01DX005 (ip), vehicle: saline with Tween-80
[8] = dose: 25.0 mg/kg/injection, schedule: Q01DX009 (ip), vehicle: saline with Tween-80
[9] = dose: 50.0 mg/kg/injection, schedule: Q01DX009 (ip), vehicle: saline with Tween-80
[10] = dose: 50.0 mg/kg/injection, schedule: Q01DX001 (ip), vehicle: saline with Tween-80
[11] = dose: 50.0 mg/kg/injection, schedule: Q01DX005 (ip), vehicle: saline with Tween-80
[12] = dose: 100.0 mg/kg/injection, schedule: Q01DX001 (ip), vehicle: saline with Tween-80
[13] = dose: 100.0 mg/kg/injection, schedule: Q01DX005 (ip), vehicle: saline with Tween-80
[14] = dose: 200.0 mg/kg/injection, schedule: Q01DX001 (ip), vehicle: saline with Tween-80
[15] = dose: 400.0 mg/kg/injection, schedule: Q01DX001 (ip), vehicle: saline with Tween-80

For `Cc1cc2ccccc2c[n+]1C`, the T/C (dose: 1.56 mg/kg/injection, schedule: Q01DX009 (ip), vehicle: saline with Tween-80) was 105 % of control, the T/C (dose: 3.12 mg/kg/injection, schedule: Q01DX009 (ip), vehicle: saline with Tween-80) was 102 % of control and the T/C [1] was 96 % of control. The T/C [2] was 105 % of control, the T/C (dose: 12.5 mg/kg/injection, schedule: Q04DX003 (ip), vehicle: saline) was 100 % of control and the T/C (dose: 25.0 mg/kg/injection, schedule: Q04DX003 (ip), vehicle: saline) was 100 % of control. For the same compound, the T/C (dose: 50.0 mg/kg/injection, schedule: Q04DX003 (ip), vehicle: saline) was 100 % of control.
`COC(=O)C1(c2cc3c(cc2OC)N(C)C2CCCCC32)CCCCCc2c1[nH]c1ccccc21` (configuration not stated) was tested, and the T/C (dose: 12.5 mg/kg/injection, schedule: Q01DX001 (ip), vehicle: distilled water + Tween-80) was 106 % of control, the T/C (dose: 25.0 mg/kg/injection, schedule: Q01DX001 (ip), vehicle: distilled water + Tween-80) was 100 % of control and the T/C (dose: 50.0 mg/kg/injection, schedule: Q01DX001 (ip), vehicle: distilled water + Tween-80) was 104 % of control. The T/C (dose: 100.0 mg/kg/injection, schedule: Q01DX001 (ip), vehicle: distilled water + Tween-80) was 100 % of control and the T/C (dose: 200.0 mg/kg/injection, schedule: Q01DX001 (ip), vehicle: distilled water + Tween-80) was 97 % of control.
With `Cc1ccc(C(=O)CC2(O)C(=O)Nc3ccccc32)cc1` (configuration not stated) the T/C (dose: 50.0 mg/kg/injection, schedule: Q01DX009 (ip), vehicle: Klucel (hydroxypropylcellulose) (HPC)) was 96 % of control, the T/C [3] was 92 % of control and the T/C [4] was 87 % of control.
In the case of `O=[N+]([O-])c1ccc(N2CCN(Cc3ccccc3)CC2)c2c1no[n+]2[O-]`, the T/C (dose: 37.5 mg/kg/injection, schedule: Q04DX003 (ip), vehicle: saline) was 100 % of control, the T/C (dose: 37.5 mg/kg/injection, schedule: Q04DX003 (ip), vehicle: suspension in saline) was 104 % of control and the T/C (dose: 75.0 mg/kg/injection, schedule: Q04DX003 (ip), vehicle: saline) was 97 % of control. For the same compound, the T/C (dose: 75.0 mg/kg/injection, schedule: Q04DX003 (ip), vehicle: suspension in saline) was 120 % of control, the T/C (dose: 150.0 mg/kg/injection, schedule: Q04DX003 (ip), vehicle: saline) was 100 % of control and the T/C (dose: 150.0 mg/kg/injection, schedule: Q04DX003 (ip), vehicle: suspension in saline) was 109 % of control. The T/C (dose: 300.0 mg/kg/injection, schedule: Q04DX003 (ip), vehicle: saline) was 100 % of control and the T/C (dose: 300.0 mg/kg/injection, schedule: Q04DX003 (ip), vehicle: suspension in saline) was 104 % of control.
For `COC(=O)c1c(-c2ccc(OC)cc2)c(-c2ccc(OC)cc2)[nH]c(=O)c1C#N`, the T/C [5] was 100 % of control, the T/C [6] was 100 % of control and the T/C [7] was 99 % of control.
In the case of `CC[P+](CC)(c1ccccc1)c1ccccc1`, the T/C (dose: 3.12 mg/kg/injection, schedule: Q01DX005 (ip), vehicle: saline) was 94 % of control, the T/C (dose: 6.25 mg/kg/injection, schedule: Q01DX005 (ip), vehicle: saline) was 95 % of control and the T/C (dose: 12.5 mg/kg/injection, schedule: Q01DX005 (ip), vehicle: saline) was 100 % of control.
For `CN(C=C(C#N)C#N)c1ccccc1`, the T/C [2] was 103 % of control, the T/C [8] was 99 % of control and the T/C [9] was 99 % of control.
With `c1ccc2c(c1)-c1ccccc1C1NC21` (configuration not stated) the T/C (dose: 12.5 mg/kg/injection, schedule: Q01DX001 (ip), vehicle: saline with Tween-80) was 99 % of control and 110 % of control, the T/C (dose: 25.0 mg/kg/injection, schedule: Q01DX001 (ip), vehicle: saline with Tween-80) was 105 % of control and 110 % of control and 123 % of control and the T/C [10] was 113 % of control. The T/C [11] was 112 % of control, the T/C [12] was 113 % of control and the T/C [13] was 110 % of control. The T/C (dose: 200.0 mg/kg/injection, schedule: Q01DX005 (ip), vehicle: saline with Tween-80) was 119 % of control.
In the case of `C=C1C(=O)OC2C(OC(=O)CC(C)C)CCCC12` (configuration not stated), the T/C (dose: 60.0 mg/kg/injection, schedule: Q01DX005 (ip), vehicle: Klucel (hydroxypropylcellulose) (HPC)) was 94 % of control, the T/C (dose: 120.0 mg/kg/injection, schedule: Q01DX005 (ip), vehicle: Klucel (hydroxypropylcellulose) (HPC)) was 92 % of control and the T/C (dose: 240.0 mg/kg/injection, schedule: Q01DX005 (ip), vehicle: Klucel (hydroxypropylcellulose) (HPC)) was 92 % of control.
With `O=C(Nc1ccc(Nc2ccncc2)cc1)c1ccc([N+](=O)[O-])cc1` the T/C [3] was 90 % of control, the T/C [4] was 100 % of control and the T/C (dose: 400.0 mg/kg/injection, schedule: Q01DX009 (ip), vehicle: Klucel (hydroxypropylcellulose) (HPC)) was 90 % of control.
For `CN(C)CCCOC1(Cc2ccc(F)cc2)CCCCCC1`, the T/C [11] was 102 % of control and the T/C [13] was 102 % of control.
`CCCCCCCCCCCCCCCC(=O)N(CCCN)CCCN(CCCN)C(=O)CCCCCCCCCCCCCCC` was tested, and the T/C [2] was 86 % of control, the T/C [8] was 109 % of control and the T/C [9] was 100 % of control.
For `N#CC(OC1OC(COC2OC(CO)C(O)C(O)C2O)C(O)C(O)C1O)c1ccccc1` (configuration not stated), the T/C (dose: 25.0 mg/kg/injection, schedule: Q01DX009 (ip), vehicle: water) was 102 % of control and 108 % of control, the T/C (dose: 50.0 mg/kg/injection, schedule: Q01DX009 (ip), vehicle: water) was 101 % of control and 108 % of control and the T/C (dose: 100.0 mg/kg/injection, schedule: Q01DX009 (ip), vehicle: water) was 102 % of control and 105 % of control and 94 % of control. The T/C (dose: 200.0 mg/kg/injection, schedule: Q01DX009 (ip), vehicle: water) was 105 % of control and 109 % of control and 92 % of control, the T/C (dose: 400.0 mg/kg/injection, schedule: Q01DX009 (ip), vehicle: water) was 105 % of control and 110 % of control and 96 % of control and the T/C (dose: 800.0 mg/kg/injection, schedule: Q01DX009 (ip), vehicle: saline) was 98 % of control. The T/C (dose: 800.0 mg/kg/injection, schedule: Q01DX009 (ip), vehicle: water) was 105 % of control and 123 % of control and 96 % of control and the T/C (dose: 1600.0 mg/kg/injection, schedule: Q01DX009 (ip), vehicle: saline) was 100 % of control.
In the case of `COC(=O)c1cc(C)c(C)cc1NC1OC(CO)C(O)C1O` (configuration not stated), the T/C [5] was 101 % of control, the T/C [6] was 95 % of control and the T/C [7] was 97 % of control.
With `CSc1ccc(NC(=O)ON2C(=O)c3ccccc3C2=O)cc1` the T/C [1] was 119 % of control, the T/C [2] was 110 % of control and the T/C [8] was 112 % of control. The T/C [9] was 119 % of control.
For `Nc1ccc(C2C(=[N+]([O-])[O-])C=C([N+](=O)[O-])c3[nH]o[n+](=O)c32)cc1` (configuration not stated), the T/C [10] was 100 % of control and the T/C [12] was 100 % of control.
With `c1ccc2cc3c(N=Nc4cc5ccccc5[nH]4)cccc3cc2c1` the T/C [12] was 97 % of control, the T/C [14] was 97 % of control and the T/C [15] was 94 % of control.
For `O=C(N/N=C/c1cc(Cl)cc(Cl)c1[O-])c1ccccc1.O=C(N/N=C/c1cc(Cl)cc(Cl)c1[O-])c1ccccc1.[Cu+2]`, the T/C [12] was 94 % of control, the T/C [14] was 92 % of control and the T/C [15] was 104 % of control.
In the case of `COC(=O)C(CCC1CCCCN1)(c1ccccc1)c1ccccc1` (configuration not stated), the T/C (dose: 25.0 mg/kg/injection, schedule: Q04DX003 (ip), vehicle: saline with Tween-80) was 120 % of control, the T/C (dose: 66.0 mg/kg/injection, schedule: Q04DX003 (ip), vehicle: saline with Tween-80) was 100 % of control and the T/C (dose: 100.0 mg/kg/injection, schedule: Q04DX003 (ip), vehicle: saline with Tween-80) was 150 % of control and 158 % of control.
`CC(=O)O[C@]1(C(C)=O)CC[C@H]2[C@@H]3C[C@H](C)C4=CC(=O)NCC[C@]4(C)[C@H]3CC[C@@]21C` was tested, and the T/C (dose: 50.0 mg/kg/injection, schedule: Q01DX005 (ip), vehicle: Klucel + Tween-80) was 98 % of control, the T/C (dose: 100.0 mg/kg/injection, schedule: Q01DX005 (ip), vehicle: Klucel + Tween-80) was 93 % of control and the T/C (dose: 200.0 mg/kg/injection, schedule: Q01DX005 (ip), vehicle: Klucel + Tween-80) was 94 % of control.
With `CN(C)C(C#C[Si](C)(C)C)CO` (configuration not stated) the T/C (dose: 100.0 mg/kg/injection, schedule: Q04DX003 (ip), vehicle: saline) was 104 % of control, the T/C (dose: 200.0 mg/kg/injection, schedule: Q04DX003 (ip), vehicle: saline) was 100 % of control and the T/C (dose: 400.0 mg/kg/injection, schedule: Q04DX003 (ip), vehicle: saline) was 97 % of control.
